Earlier results as cited in patent US20110092532A1 (priority 2009, published 2011).
Read-outs that look alike come from different tables or passages of the source.

Assays:
[1] = rats, after oral ingestion, portal vein not shunted
[2] = system: patients with motor fluctuations
Cat = conditions: subcutaneous
Dog = conditions: in vivo, sc
healthy volunteers = conditions: healthy male volunteers, no anti-emetic drugs
[3] = SL apomorphine, three patients with motor fluctuations

CN1CCc2cccc3c2[C@H]1Cc1ccc(O)c(O)c1-3 [apomorphine]
tissue levels of apomorphine [1]: not detectable | duration of effect [2, 3]: 15 to 100 min | latency to effect [2, 3]: 20 to 40 min | "off" periods ([2]; one patient, SL apomorphine as adjunct with levodopa, during one month): large decrease | Reversible Toxicity Seen (Cat): 136 mg/kg | Reversible Toxicity Seen (Dog): 36 to 71 mg/kg | Tmax (intranasal route): 23 min | lag time (intranasal route): 2.8 min | Tmax (subcutaneous route): 18 min | lag time (subcutaneous route): 3.9 min | amount of intravenous apomorphine which will reliably induce emesis (healthy volunteers): 2.5 mg
